GI50 and TGI data for twelve molecules are collected here from PubChem BioAssay (NCI).

SMILES strings stand for the structures. Where “and” joins values, the source holds several entries; their conditions need not be identical. Equal values may be shown once.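 All cell lines were grown in 96-well plates and treated with compound for 48 hours. At the GI50, growth is halved. TGI denotes the concentration required for complete inhibition of growth.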

Experiment in all cases: growth of human tumour cells (NCI), 48 h
Assay [1] concerns CAKI-1 renal.
Assay [2] concerns CCRF-CEM leukemia.
In assay [3] the test system is HCT-116 colon.
Assay [4] has as its system LOX IMVI melanoma.
For assay [5], the system named is M14 melanoma.
For assay [6], the system named is SR leukemia.
The test system of assay [7] is T-47D breast.
Assay [8] relates to TK-10 renal.
For assay [9], the system named is BT-549 breast.
For assay [10], the system named is HOP-92 NSCLC.

On to `CN1C(=O)C(c2c[nH]c3ccccc23)=C(c2c(-c3c[nH]c4ccccc34)[nH]c3ccccc23)C1=O`, for which the GI50 was 1480 nM in [1]; 3190 nM in assay [2]; 3680 nM in assay [3]; 4670 nM in assay [4]; 1760 nM in [5]; 5190 nM in [6]. Further, the figures for the GI50 in assay [7] and in assay [8] were 4.72 µM and 1.66 µM, respectively. The TGI in [1] worked out at 4.63 µM; in [2], 12.4 µM; in assay [3] it was 11.2 µM; in assay [4] it was 17 µM; in assay [5], 4.79 µM; in assay [6] it was 9.68 µM. The results for the TGI in assay [7] and in [8] were 66.8 µM and 4.85 µM, respectively.

Turning to `Oc1ccc(CN(Cc2ccc(C(F)(F)F)cc2)Cc2ccc(O)c3ncccc23)c2cccnc12`, the GI50 in assay [9] is 29.7 nM; in [1], 42.8 nM; in assay [2], 31.4 nM; in assay [3] it was under 10 nM; in assay [4] it was 38.1 nM; in assay [5], 32.6 nM. Besides, the values for the GI50 in [6], in assay [7] and in assay [8] were 40 nM, 0.028 µM and 0.0165 µM, respectively. The TGI in assay [9] was over 100 µM; in assay [2], over 100 µM; in assay [3] it was over 100 µM; in assay [4] it was 15.1 µM; in assay [5], 2.17 µM; in assay [6], over 100 µM. Moreover, the TGI in assay [7] and in assay [8] was over 100 µM each time.

For the molecule `Cc1cc(NC(=O)NC(=O)c2ccccc2NC(=O)CN)ccc1Oc1ncc(Br)cn1`, the TGI in assay [1] was 2.61 µM; in [3] it was 26.1 µM and > 100 µM; in [10], 32.7 µM; in [4], 34.1 µM and > 100 µM; in [6], 55.8 µM and > 100 µM; in assay [7] it was 47.4 µM. Besides, the TGI in assay [8] is 36.4 µM and 25.3 µM. For the same molecule, the GI50 is 47.6 nM in assay [2]; 430 nM in [3]; 624 nM in [4]; 117 nM in assay [5]; 30.2 nM in [6]; 3.73 µM in [8].

On to `O=C(NC1(C(=O)O)CC1c1ccccc1)c1ccccc1` (centres undefined), for which the TGI in [9], in assay [1], in assay [3], in [10], in assay [4] and in assay [5] was over 100 µM each time. Also, the TGI in assay [6], in assay [7] and in assay [8] was over 100 µM in each case.

Take `NC1=NC(c2ccc(F)cc2)C2=C(N1)c1ccc3ccccc3c1OCC2` (centres undefined): the GI50 in [9] is 33600 nM; in [1] it was 12300 nM; in [10], 36.3 µM; in assay [4] it was over 100000 nM; in assay [5], over 100000 nM; in assay [6] it was 2370 nM. Besides, the values for the GI50 in assay [7] and in assay [8] were 13.5 µM and 14.5 µM, respectively. The TGI is over 100 µM in assay [9]; 70.6 µM in [1]; over 100 µM in assay [10]; over 100 µM in assay [4]; over 100 µM in assay [5]; over 100 µM in assay [6]. In addition, the TGI in assay [7] and in assay [8] was over 100 µM throughout.

As to `CC1(C)N[P+]2(Nc3ccccc3O2)OC1=O` (centres undefined), the TGI in assay [9], in assay [1], in assay [2], in [3], in assay [4] and in assay [5] was over 100 µM each time. For the same molecule, the TGI in assay [7] and in assay [8] was over 100 µM each time.

For the molecule `COc1ccc(-c2csc3c2-n2cccc2C3=O)cc1O`, the GI50 in assay [9] is 19.7 nM; in assay [1], 49.7 nM; in assay [2], 59 nM; in [3], 27.1 nM; in [4], under 18.2 nM; in assay [6], under 10 nM. The GI50 in assay [7] is 39.4 µM; in assay [8] it was 17.6 µM. For the same molecule, the TGI in [9] was over 100 µM; in [1], over 63.2 µM; in assay [2], 0.4 µM; in assay [3], 17 µM; in assay [4] it was over 100 µM; in assay [6] it was 31.9 µM. For the same molecule, the TGI in assay [7] was over 100 µM; in [8] it was 98.7 µM.

With `NC(N)=N/N=C/c1c(-c2ccc(Cl)c([N+](=O)[O-])c2)nc2ccccn12`, the GI50 is 119 nM in [9], 11800 nM in assay [1], 362 nM in assay [3] and 2.08 µM in assay [7]. In addition, the TGI in assay [9] worked out at 1.18 µM; in assay [1], 42.4 µM; in [3] it was 1.55 µM; in assay [7], 5.01 µM.

With `CC[C@@]1(O)C(=O)OCc2c1cc1n(c2=O)Cc2cc3c(NC(=O)CN)cccc3nc2-1`, the TGI in [9] was over 100 µM; in assay [1] it was 2.14 µM; in assay [2] it was 2.33 µM; in [3], over 56.1 µM; in assay [10], over 100 µM; in [5], 2.8 µM. Besides, the figures for the TGI in assay [6], in assay [7] and in assay [8] were under 0.0121 µM, 0.744 µM and over 81.7 µM, respectively.

For `Cc1ccc2nc(N/N=C/c3cccc(C)n3)cc(C)c2c1`, the TGI in assay [9] came out at 33.3 µM; in assay [1], 31 µM; in assay [3] it was 32.1 µM; in assay [10], 37.2 µM; in [4], 31.6 µM; in [5], 46.9 µM. Moreover, the TGI in assay [6] came out at 45.3 µM; in [7] it was 38.7 µM; in assay [8], 30.4 µM.

Regarding `NC1=C(Cl)C(=O)c2ccccc2C1=O`, the TGI amounted to 4.19 µM in [9]; 34.1 µM in assay [1]; 32.5 µM in assay [2]; 11.6 µM in assay [3]; 33.7 µM in assay [10]; 7.91 µM in assay [4]. Also, the figures for the TGI in assay [5], in [6] and in assay [8] were 3.26 µM, 32.9 µM and 49 µM, respectively.

With `COc1cc(OC)cc(-c2cncn2-c2ccc(-c3nc4cc(OC)cc(OC)c4s3)cc2)c1`, the GI50 is 3090 nM in assay [9]; 2130 nM in [1]; 4940 nM in [3]; 5480 nM in assay [4]; 3300 nM in assay [6]; 5.77 µM in [7]. Besides, in assay [8], the GI50 is 16.8 µM. Also, the TGI in [9], in assay [1], in [3], in assay [4], in [6] and in assay [7] was over 100 µM throughout. Moreover, the TGI in assay [8] is over 100 µM.
